Columns and labels:
[1] = target: PSMA protein (Homo sapiens (Human), UniProt Q04609); experiment: Affinity of DB compounds to PSMA protein using Biacore (Effect Example 3); conditions: Biacore 8K, 15° C., 1:1 binding model; pKD=−Log KD
Method: The affinity of DB compounds to PSMA protein was tested using the Biacore 8K (Cytiva) instrument to detect ligand binding to PSMA protein (Sino Biological). PSMA protein was captured on an SA chip. Before fixing the ligand (flow paths 1 and 2, flow rate of 10 μL/min), PSMA protein (10 μg/mL, flow rate of 5 μL/min, injection time of 600 s) was fixed on flow path 2 using a flow buffer. The sensor surface was adjusted by continuously injecting 1 M NaCl three times in 50 mM NaOH. After each ligand injection, additional cleaning was performed using isopropanol in 1 M NaCl and 50 mM NaOH (flow paths 1 and 2, flow rate of 10 μL/min, injection time of 60 s).
All compounds were dissolved in 100% DMSO and diluted to 10 mM, then further diluted to the appropriate highest concentration in the analysis buffer (PBS, PH 7.4, 1 mM TCEP ([…]), 0.05% P20, 2% DMSO). The analysis was conducted under the following conditions: 15° C. analysis temperature; analysis steps=all set to LMW kinetics; cycle type=single cycle (90 s contact time, 1800 s dissociation time, 30 μL/min flow rate, flow paths 1 and 2); detection in flow=path 2-1. Data evaluation was performed using Biacore Insight Evaluation Software, fitting the data to a 1:1 binding model.
Biacore results are shown in Table 5: pKD=−Log KD, wherein KD is the binding affinity of the compound to PSMA protein measured by Biacore. It is expressed by Kd (M)=Kd (1/s)/Ka (1/Ms). A indicates pKD>8; B indicates 7<pKD<8; C indicates 6<pKD<7; D indicates pKD<6.

[2] = test system: human prostate cancer cell line 22RV1 tumor model; experiment: Micro-SPECT/CT scanning imaging study in mouse transplanted with 22RV1; format: in vivo; conditions: for Uptake in Bladder / Uptake in Kidney / Uptake in Liver / Uptake in Muscle / Uptake in Tumor (22Rv1): i.v., Micro-SPECT/CT
Method: Human prostate cancer cell line 22RV1 cells were subcutaneously injected into the axilla of nude mouse to establish a prostate cancer tumor model. Approximately 3.7 MBq (100 μCi/200 μL) of the ^177Lu-labeled compound [^177Lu] DB-01 was administered via intravenous injection. SPECT/CT images were acquired using the U-SPECT+/CT (MI Labs) at 3rd hour, 5th hour, 24th hour, 72nd hour, 120th hour and 168th hour post-injection, and the resulting SPECT/CT images were quantitatively analyzed.
Table 4 presents the uptake in various organs of mouse at the 3rd hour, 5th hour, 24th hour, 72nd hour, 120th hour, and 168th hour post-injection of [^177Lu] DB-01. The results are expressed as the quantitative percentage of the injected dose (% ID)/g, based on Micro-SPECT/CT quantitative analysis.

Chain of PSMA protein (Q04609 whole entry): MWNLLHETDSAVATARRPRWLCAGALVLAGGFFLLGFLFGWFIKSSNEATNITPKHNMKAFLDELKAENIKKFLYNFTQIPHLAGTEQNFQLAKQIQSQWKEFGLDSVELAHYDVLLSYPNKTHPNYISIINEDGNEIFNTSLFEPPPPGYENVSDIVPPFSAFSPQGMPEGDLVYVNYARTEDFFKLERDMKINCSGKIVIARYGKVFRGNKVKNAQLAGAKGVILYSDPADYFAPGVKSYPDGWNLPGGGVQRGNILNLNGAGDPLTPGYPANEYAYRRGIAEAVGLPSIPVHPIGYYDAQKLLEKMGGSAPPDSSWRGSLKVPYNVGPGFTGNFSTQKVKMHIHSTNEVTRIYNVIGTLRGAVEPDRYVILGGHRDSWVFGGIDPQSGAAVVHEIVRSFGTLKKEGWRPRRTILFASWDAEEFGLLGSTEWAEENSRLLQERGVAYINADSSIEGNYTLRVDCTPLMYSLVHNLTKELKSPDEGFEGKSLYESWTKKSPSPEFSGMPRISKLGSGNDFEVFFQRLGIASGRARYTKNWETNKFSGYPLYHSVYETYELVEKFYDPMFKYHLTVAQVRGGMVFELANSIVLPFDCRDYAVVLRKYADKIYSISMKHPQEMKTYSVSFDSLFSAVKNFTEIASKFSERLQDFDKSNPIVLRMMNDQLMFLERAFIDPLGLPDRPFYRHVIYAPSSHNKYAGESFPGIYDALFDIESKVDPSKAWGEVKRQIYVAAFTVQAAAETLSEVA

How did the Kd [1] turn out when `O=C(O)CC[C@H](NC(=O)N[C@@H](CCCCNC(=O)[C@H](Cc1ccc2ccccc2c1)NC(=O)[C@H]1CC[C@H](CNC(=O)CNC(=O)c2cc(NC(=O)CN3CCN(CC(=O)O)CCN(CC(=O)O)CCN(CC(=O)O)CC3)cc(C(=O)NCC(=O)NC[C@H]3CC[C@H](C(=O)N[C@@H](Cc4ccc5ccccc5c4)C(=O)NCCCC[C@H](NC(=O)N[C@@H](CCC(=O)O)C(=O)O)C(=O)O)CC3)c2)CC1)C(=O)O)C(=O)O` [DB-02] was run?
Its Kd is less than 10 nM.

How did the Kd [1] turn out when `O=C(O)CC[C@H](NC(=O)NC(CCCCNC(=O)[C@H](Cc1ccc2ccccc2c1)NC(=O)[C@H]1CC[C@H](NC(=O)c2cc(NC(=O)CNC(=O)CN3CCN(CC(=O)O)CCN(CC(=O)O)CCN(CC(=O)O)CC3)cc(C(=O)N[C@H]3CC[C@H](C(=O)N[C@@H](Cc4ccc5ccccc5c4)C(=O)NCCCC[C@H](NC(=O)N[C@@H](CCC(=O)O)C(=O)O)C(=O)O)CC3)c2)CC1)C(=O)O)C(=O)O` (some centres unmarked) [DB-17] was run?
Its Kd is less than 10 nM.

Which results are given for `O=C(O)CC[C@H](NC(=O)N[C@@H](CCCCNC(=O)[C@H](Cc1ccc2ccccc2c1)NC(=O)C1CCC(CNC(=O)c2cc(NC(=O)C[N+]34CC[N+]56CC[N+]78CC[N+]9(CC3)CC(=O)[O][Lu-4]4597([O]C(=O)C6)[O]C(=O)C8)cc(C(=O)NC[C@H]3CC[C@H](C(=O)N[C@@H](Cc4ccc5ccccc5c4)C(=O)NCCCC[C@H](NC(=O)N[C@@H](CCC(=O)O)C(=O)O)C(=O)O)CC3)c2)CC1)C(=O)O)C(=O)O` (some centres unmarked) [[^177Lu] DB-01]?
Uptake in Bladder ([2]; 3 hr post-injection): 65.50 ± 36.65 % ID/g; Uptake in Kidney ([2]; 3 hr post-injection): 43.00 ± 7.38 % ID/g; Uptake in Liver ([2]; 3 hr post-injection): 2.75 ± 0.90 % ID/g; Uptake in Muscle ([2]; 3 hr post-injection): 1.97 ± 0.71 % ID/g; Uptake in Tumor (22Rv1) ([2]; 3 hr post-injection): 21.25 ± 4.38 % ID/g; Uptake in Bladder ([2]; 5 hr post-injection): 140.36 ± 10.51 % ID/g; Uptake in Kidney ([2]; 5 hr post-injection): 19.29 ± 2.77 % ID/g; Uptake in Liver ([2]; 5 hr post-injection): 1.56 ± 0.15 % ID/g; Uptake in Muscle ([2]; 5 hr post-injection): 1.10 ± 0.56 % ID/g; Uptake in Tumor (22Rv1) ([2]; 5 hr post-injection): 21.28 ± 0.42 % ID/g; Uptake in Bladder ([2]; 24 hr post-injection): 0.61 ± 0.00 % ID/g; Uptake in Kidney ([2]; 24 hr post-injection): 1.32 ± 0.63 % ID/g; Uptake in Liver ([2]; 24 hr post-injection): 0.91 ± 0.45 % ID/g; Uptake in Muscle ([2]; 24 hr post-injection): 0.51 ± 0.17 % ID/g; Uptake in Tumor (22Rv1) ([2]; 24 hr post-injection): 15.51 ± 2.65 % ID/g; Uptake in Bladder ([2]; 72 hr post-injection): 1.03 ± 0.62 % ID/g; Uptake in Kidney ([2]; 72 hr post-injection): 1.38 ± 0.29 % ID/g; Uptake in Liver ([2]; 72 hr post-injection): 0.90 ± 0.42 % ID/g; Uptake in Muscle ([2]; 72 hr post-injection): 0.81 ± 0.23 % ID/g; Uptake in Tumor (22Rv1) ([2]; 72 hr post-injection): 12.41 ± 0.95 % ID/g; Uptake in Bladder ([2]; 120 hr post-injection): 0.92 ± 0.06 % ID/g; Uptake in Kidney ([2]; 120 hr post-injection): 0.77 ± 0.62 % ID/g; Uptake in Liver ([2]; 120 hr post-injection): 0.99 ± 0.22 % ID/g; Uptake in Muscle ([2]; 120 hr post-injection): 0.43 ± 0.17 % ID/g; Uptake in Tumor (22Rv1) ([2]; 120 hr post-injection): 8.90 ± 0.48 % ID/g; Uptake in Bladder ([2]; 168 hr post-injection): 1.01 ± 0.38 % ID/g; Uptake in Kidney ([2]; 168 hr post-injection): 1.53 ± 0.46 % ID/g; Uptake in Liver ([2]; 168 hr post-injection): 1.04 ± 0.26 % ID/g; Uptake in Muscle ([2]; 168 hr post-injection): 0.65 ± 0.34 % ID/g; Uptake in Tumor (22Rv1) ([2]; 168 hr post-injection): 7.85±1.16 % ID/g; uptake in tumor ([2]; at 180 minutes, according to calculations): 13.55±3.85 % ID/g; excretion ([2]; early stages post-injection): rapidly excreted through the kidneys and bladder; time at which concentration of the radiopharmaceutical in the tumor reaches its peak ([2]; post-administration): 5 h

From patent US20250108139A1, “PEPTIDE UREA DERIVATIVE, PHARMACEUTICAL COMPOSITION CONTAINING PEPTIDE UREA DERIVATIVE, AND APPLICATION OF PEPTIDE UREA DERIVATIVE” (BIVISION PHARMACEUTICALS, INC, priority 2022, published 2025)
